Assay results taken from US9938261B2, “Heterocyclic compounds and methods of use thereof” (AMBIT BIOSCIENCES CORPORATION, priority 2011, dated 2018).
Structures can show the parent of a compound that is named as a salt. Where two headings read alike, the source gives them in different places.

Assays:
FLT3 = target: T1, FLT3 (Homo sapiens, UniProt P36888); assay: Competition binding assay, FLT3 Kd
T1 construct: made in house
T1 sequence (P36888 27-993): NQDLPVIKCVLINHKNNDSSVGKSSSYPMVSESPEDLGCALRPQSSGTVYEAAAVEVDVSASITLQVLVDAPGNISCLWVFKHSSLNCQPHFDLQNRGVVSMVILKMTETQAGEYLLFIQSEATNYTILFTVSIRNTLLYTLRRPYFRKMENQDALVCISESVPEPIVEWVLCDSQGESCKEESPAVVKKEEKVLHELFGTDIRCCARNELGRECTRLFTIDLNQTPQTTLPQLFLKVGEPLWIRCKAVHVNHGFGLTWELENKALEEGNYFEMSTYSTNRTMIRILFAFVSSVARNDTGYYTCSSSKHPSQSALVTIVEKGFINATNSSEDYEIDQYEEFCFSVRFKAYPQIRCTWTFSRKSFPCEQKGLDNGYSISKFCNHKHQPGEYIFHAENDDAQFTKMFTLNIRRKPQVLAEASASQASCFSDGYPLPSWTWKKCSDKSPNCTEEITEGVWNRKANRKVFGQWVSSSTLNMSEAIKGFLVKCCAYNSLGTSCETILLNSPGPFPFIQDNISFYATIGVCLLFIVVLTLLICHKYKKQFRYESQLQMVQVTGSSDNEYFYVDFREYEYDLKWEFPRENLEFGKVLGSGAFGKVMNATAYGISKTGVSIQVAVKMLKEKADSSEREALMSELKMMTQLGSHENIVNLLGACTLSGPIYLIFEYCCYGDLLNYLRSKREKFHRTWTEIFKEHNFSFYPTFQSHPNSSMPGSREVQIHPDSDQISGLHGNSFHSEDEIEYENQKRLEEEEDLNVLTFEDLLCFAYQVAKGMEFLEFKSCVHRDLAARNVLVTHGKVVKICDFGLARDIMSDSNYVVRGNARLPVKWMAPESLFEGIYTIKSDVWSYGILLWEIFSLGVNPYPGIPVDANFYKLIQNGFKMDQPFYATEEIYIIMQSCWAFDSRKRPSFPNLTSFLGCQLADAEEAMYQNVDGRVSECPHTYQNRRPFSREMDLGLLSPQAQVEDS
Method in brief: (§1)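 Kinases as T7-phage fusions or HEK-293-expressed DNA-tagged constructs competed against immobilized biotinylated ligand on streptavidin beads, 1 h at room temperature in binding buffer. Bound kinase eluted and quantified by qPCR; Kd from eleven-point threefold dilution series.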

KIT = target: T2, KIT (Homo sapiens, UniProt P10721); assay: Competition binding assay, KIT Kd
T2 construct: made in house
T2 sequence (P10721 26-976): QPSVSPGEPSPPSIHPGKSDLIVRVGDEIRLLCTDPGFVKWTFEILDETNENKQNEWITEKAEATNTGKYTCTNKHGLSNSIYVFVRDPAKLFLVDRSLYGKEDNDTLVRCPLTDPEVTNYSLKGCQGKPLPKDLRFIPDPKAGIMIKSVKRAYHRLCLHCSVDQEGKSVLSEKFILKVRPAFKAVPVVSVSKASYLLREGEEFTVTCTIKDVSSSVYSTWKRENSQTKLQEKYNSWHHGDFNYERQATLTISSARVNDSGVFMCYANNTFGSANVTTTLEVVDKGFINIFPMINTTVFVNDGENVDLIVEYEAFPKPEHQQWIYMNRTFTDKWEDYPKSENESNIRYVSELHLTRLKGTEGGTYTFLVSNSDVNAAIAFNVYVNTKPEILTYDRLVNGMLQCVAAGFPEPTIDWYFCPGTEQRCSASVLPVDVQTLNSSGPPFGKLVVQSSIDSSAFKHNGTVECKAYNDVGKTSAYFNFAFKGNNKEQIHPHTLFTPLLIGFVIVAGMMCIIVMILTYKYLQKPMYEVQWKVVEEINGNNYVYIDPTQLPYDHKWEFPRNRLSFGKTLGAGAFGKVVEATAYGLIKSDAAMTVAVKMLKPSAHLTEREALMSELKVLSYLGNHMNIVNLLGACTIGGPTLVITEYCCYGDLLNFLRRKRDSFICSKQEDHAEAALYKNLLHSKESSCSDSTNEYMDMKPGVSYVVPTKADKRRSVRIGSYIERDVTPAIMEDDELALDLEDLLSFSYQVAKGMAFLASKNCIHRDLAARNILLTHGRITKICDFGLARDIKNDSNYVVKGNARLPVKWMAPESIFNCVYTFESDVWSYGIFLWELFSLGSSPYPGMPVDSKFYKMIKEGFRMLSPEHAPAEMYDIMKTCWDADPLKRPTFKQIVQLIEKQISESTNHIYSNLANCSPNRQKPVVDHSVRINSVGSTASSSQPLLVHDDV
Method in brief: as §1

CSF1R = CSF1R (Homo sapiens, UniProt P07333); assay: HEK293 CSF1R phosphorylation MSD assay; format: cell-based; parameters: expressed in transfected cells; host or cells: HEK293; conditions: read-out: HEK293 pCSF1R M-CSF MSD:IC50
Chain of CSF1R (P07333 20-972): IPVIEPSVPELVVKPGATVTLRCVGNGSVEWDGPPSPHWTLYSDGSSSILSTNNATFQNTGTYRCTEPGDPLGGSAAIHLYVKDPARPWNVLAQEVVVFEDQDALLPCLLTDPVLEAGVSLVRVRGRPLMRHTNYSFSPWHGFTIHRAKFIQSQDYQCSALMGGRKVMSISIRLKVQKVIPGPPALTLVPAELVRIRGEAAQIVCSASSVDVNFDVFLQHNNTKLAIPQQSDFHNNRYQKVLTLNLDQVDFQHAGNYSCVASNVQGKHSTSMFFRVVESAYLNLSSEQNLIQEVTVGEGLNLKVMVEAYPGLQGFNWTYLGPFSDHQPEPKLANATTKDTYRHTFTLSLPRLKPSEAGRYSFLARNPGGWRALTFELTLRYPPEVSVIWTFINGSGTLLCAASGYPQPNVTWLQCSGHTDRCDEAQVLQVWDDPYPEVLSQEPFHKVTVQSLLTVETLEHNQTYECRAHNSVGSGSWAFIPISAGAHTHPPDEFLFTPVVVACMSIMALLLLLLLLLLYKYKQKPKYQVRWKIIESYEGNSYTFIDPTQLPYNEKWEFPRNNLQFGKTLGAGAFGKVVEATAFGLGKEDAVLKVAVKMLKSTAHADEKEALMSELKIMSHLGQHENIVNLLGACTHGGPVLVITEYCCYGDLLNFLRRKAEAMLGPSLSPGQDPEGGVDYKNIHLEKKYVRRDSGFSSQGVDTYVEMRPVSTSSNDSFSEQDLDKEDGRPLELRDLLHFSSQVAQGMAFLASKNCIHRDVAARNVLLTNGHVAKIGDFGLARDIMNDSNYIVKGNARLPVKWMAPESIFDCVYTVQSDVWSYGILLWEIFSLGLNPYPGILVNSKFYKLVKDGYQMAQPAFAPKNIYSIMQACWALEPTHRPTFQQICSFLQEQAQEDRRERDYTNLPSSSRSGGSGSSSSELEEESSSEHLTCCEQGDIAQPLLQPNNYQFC
Method in brief: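 Ligand-induced CSF1R autophosphorylation was measured by MSD sandwich assay: CSF1R-FKBP from lysates captured via FK506, anti-phosphotyrosine readout. Cells were exposed to compound for 2 h (9-point, half-log, 0.5% DMSO) before 5 min 50 ng/mL M-CSF. Reported IC50 is the mean of duplicate-plate IC50s relative to DMSO control.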

PDGFRβ = target: T3, PDGFRβ (Homo sapiens, UniProt P09619); assay: Competition binding assay, PDGFRβ Kd
T3 construct: made in house
T3 sequence (P09619 33-1106): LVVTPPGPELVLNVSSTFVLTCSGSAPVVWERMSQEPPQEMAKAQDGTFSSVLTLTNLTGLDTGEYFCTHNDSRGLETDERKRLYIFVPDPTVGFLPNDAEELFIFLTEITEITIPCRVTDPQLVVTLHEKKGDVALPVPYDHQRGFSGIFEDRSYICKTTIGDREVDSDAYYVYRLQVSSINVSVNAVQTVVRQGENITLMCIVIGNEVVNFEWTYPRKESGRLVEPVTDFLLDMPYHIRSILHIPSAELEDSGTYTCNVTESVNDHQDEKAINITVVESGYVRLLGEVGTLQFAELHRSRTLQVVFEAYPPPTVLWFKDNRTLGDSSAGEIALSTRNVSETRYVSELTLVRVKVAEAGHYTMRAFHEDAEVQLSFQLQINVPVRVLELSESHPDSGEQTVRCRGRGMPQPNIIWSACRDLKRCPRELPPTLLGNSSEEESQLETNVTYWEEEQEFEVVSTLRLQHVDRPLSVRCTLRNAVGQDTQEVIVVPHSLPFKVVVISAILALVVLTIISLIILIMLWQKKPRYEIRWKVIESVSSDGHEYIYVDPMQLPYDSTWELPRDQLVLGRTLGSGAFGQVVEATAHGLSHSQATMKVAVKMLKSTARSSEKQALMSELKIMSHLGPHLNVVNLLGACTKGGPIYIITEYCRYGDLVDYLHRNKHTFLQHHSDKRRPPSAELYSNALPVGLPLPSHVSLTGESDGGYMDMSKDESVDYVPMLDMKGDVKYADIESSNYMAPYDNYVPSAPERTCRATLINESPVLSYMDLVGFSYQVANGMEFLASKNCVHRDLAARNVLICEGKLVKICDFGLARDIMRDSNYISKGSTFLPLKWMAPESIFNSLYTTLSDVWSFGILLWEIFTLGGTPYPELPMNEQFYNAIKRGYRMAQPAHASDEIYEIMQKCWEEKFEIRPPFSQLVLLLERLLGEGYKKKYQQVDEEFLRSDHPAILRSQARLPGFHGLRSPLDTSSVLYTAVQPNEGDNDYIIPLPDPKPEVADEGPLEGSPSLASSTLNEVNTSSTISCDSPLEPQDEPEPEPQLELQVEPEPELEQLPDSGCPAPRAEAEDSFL
Method in brief: as §1

[1] = HEK293 cells, M-CSF stimulated CSF1R phosphorylation, MSD
[2] = 2 h compound, human M-CSF 50 ng/mL for 5 min

Compound | Kd (FLT3; competition binding) [nM] | Kd (KIT; competition binding) [nM] | IC50 (CSF1R; [1]) [nM] | Kd (PDGFRβ; competition binding) [nM] | Kd (FLT3) [nM] | Kd (KIT) [nM] | IC50 (CSF1R; [2]) [nM] | Kd (PDGFRβ) [nM]
N#Cc1cc(F)c2c(c1)ncn2Cc1ccc2nc(N[C@@H]3CCCC[C@H]3O)sc2c1 [Example 206, 7-fluoro-1-((2-(((1R,2R)-2-hydroxycyclohexyl)amino)benzo[d]thiazol-6-yl)methyl)-1H-benzo[d]imidazole-5-carbonitrile] | 200 to 1000 | 100 to 500 | 50 to 200 | 50 to 500 | – | – | – | –
C=Cc1cc(F)c2c(c1)ncn2Cc1ccc2nc(N[C@@H]3CCCC[C@H]3O)sc2c1 [Example 207, (1R,2R)-2-((6-((7-fluoro-5-vinyl-1H-benzo[d]imidazol-1-yl)methyl)benzo[d]thiazol-2-yl)amino)cyclohexanol] | ≤ 200 | ≤ 100 | 50 to 200 | ≤ 50 | – | – | – | –
O[C@@H]1CCCC[C@H]1Nc1nc2ccc(Cn3cnc4cc(C5=CCOCC5)cc(F)c43)cc2s1 [Example 208, (1R,2R)-2-((6-((5-(3,6-dihydro-2H-pyran-4-yl)-7-fluoro-1H-benzo[d]imidazol-1-yl)methyl)benzo[d]thiazol-2-yl)amino)cyclohexanol] | ≤ 200 | ≤ 100 | 50 to 200 | ≤ 50 | – | – | – | –
O[C@@H]1CCCC[C@H]1Nc1nc2ccc(Cn3cnc4cc(N5CCOCC5)ccc43)cc2s1 [Example 209, (1R,2R)-2-((6-((5-morpholino-1H-benzo[d]imidazol-1-yl)methyl)benzo[d]thiazol-2-yl)amino)cyclohexanol] | 200 to 1000 | 100 to 500 | 50 to 200 | 50 to 500 | – | – | – | –
O=C1CCCCN1c1ccc2c(c1)ncn2Cc1ccc2nc(N[C@@H]3CCCC[C@H]3O)sc2c1 [Example 210, 1-(1-((2-(((1R,2R)-2-hydroxycyclohexyl)amino)benzo[d]thiazol-6-yl)methyl)-1H-benzo[d]imidazol-5-yl)piperidin-2-one] | > 5000 | 500 to 2000 | 200 to 500 | 500 to 2000 | – | – | – | –
either (1R,2R)-1-((6-((4-(1-methyl-1H-pyrazol-4-yl)-1H-imidazol-1-yl)methyl)benzo[d]thiazol-2-yl)amino)-2,3-dihydro-1H-inden-2-ol or (1R,2R)-1-((6-((5-(1-methyl-1H-pyrazol-4-yl)-1H-imidazol-1-yl)methyl)benzo[d]thiazol-2-yl)amino)-2,3-dihydro-1H-inden-2-ol [Example 83] | – | – | – | – | ≤ 200 | 500 to 2000 | 50 to 200 | 50 to 500
either (1R,2R)-2-((6-((3H-imidazo[4,5-b]pyridin-3-yl)methyl)benzo[d]thiazol-2-yl)amino)-1-methylcyclohexanol or (1S,2R)-2-((6-((3H-imidazo[4,5-b]pyridin-3-yl)methyl)benzo[d]thiazol-2-yl)amino)-1-methylcyclohexanol [Example 60] | – | – | – | – | 1000 to 5000 | 100 to 500 | 50 to 200 | ≤ 50
either (1S,2R)-2-((6-((3H-imidazo[4,5-b]pyridin-3-yl)methyl)benzo[d]thiazol-2-yl)amino)-1-methylcyclohexanol or (1R,2R)-2-((6-((3H-imidazo[4,5-b]pyridin-3-yl)methyl)benzo[d]thiazol-2-yl)amino)-1-methylcyclohexanol [Example 59] | – | – | – | – | 1000 to 5000 | 100 to 500 | 50 to 200 | 50 to 500

Continued, in another order:

Kd (FLT3; competition binding) [nM] | Kd (KIT; competition binding) [nM] | IC50 (CSF1R; [1]) [nM] | Kd (PDGFRβ; competition binding) [nM] | Compound | Kd (FLT3) [nM] | Kd (KIT) [nM] | IC50 (CSF1R; [2]) [nM] | Kd (PDGFRβ) [nM]
≤ 200 | ≤ 100 | ≤ 50 | ≤ 50 | O[C@@H]1CCCC[C@H]1Nc1nc2ccc(Cn3cnc4cc(-c5cc[nH]n5)ccc43)cc2s1 [Example 211, (1R,2R)-2-((6-((5-(1H-pyrazol-3-yl)-1H-benzo[d]imidazol-1-yl)methyl)benzo[d]thiazol-2-yl)amino)cyclohexanol] | – | – | – | –
200 to 1000 | ≤ 100 | 50 to 200 | ≤ 50 | O[C@@H]1CCCC[C@H]1Nc1nc2ccc(Cn3cnc4cc(C(F)(F)F)cnc43)cc2s1 [Example 212, (1R,2R)-2-((6-((6-(trifluoromethyl)-3H-imidazo[4,5-b]pyridin-3-yl)methyl)benzo[d]thiazol-2-yl)amino)cyclohexanol] | – | – | – | –
> 5000 | 100 to 500 | ≤ 50 | 50 to 500 | O[C@@H]1CCCC[C@H]1Nc1nc2ccc(Cc3cnc4cc(-n5ccnc5)ccn34)cc2s1 [Example 214, (1R,2R)-2-((6-((7-(1H-imidazol-1-yl)imidazo[1,2-a]pyridin-3-yl)methyl)benzo[d]thiazol-2-yl)amino)cyclohexanol] | – | – | – | –
1000 to 5000 | 500 to 2000 | 50 to 200 | 500 to 2000 | O[C@@H]1CCCC[C@H]1Nc1nc2ccc(Cc3cnc4cc(-n5nccn5)ccn34)cc2s1 [Example 215, (1R,2R)-2-((6-((7-(2H-1,2,3-triazol-2-yl)imidazo[1,2-a]pyridin-3-yl)methyl)benzo[d]thiazol-2-yl)amino)cyclohexanol] | – | – | – | –
1000 to 5000 | 500 to 2000 | 50 to 200 | 50 to 500 | C=Cc1ccn2c(Cc3ccc4nc(N[C@@H]5CCCC[C@H]5O)sc4c3)cnc2c1 [Example 216, (1R,2R)-2-((6-((7-vinylimidazo[1,2-a]pyridin-3-yl)methyl)benzo[d]thiazol-2-yl)amino)cyclohexanol] | – | – | – | –
1000 to 5000 | 500 to 2000 | 50 to 200 | 50 to 500 | C=CCOc1ccn2c(Cc3ccc4nc(N[C@@H]5CCCC[C@H]5O)sc4c3)cnc2c1 [Example 217, (1R,2R)-2-((6-((7-(allyloxy)imidazo[1,2-a]pyridin-3-yl)methyl)benzo[d]thiazol-2-yl)amino)cyclohexanol] | – | – | – | –
1000 to 5000 | 500 to 2000 | ≤ 50 | 50 to 500 | O[C@@H]1CCCC[C@H]1Nc1nc2ccc(Cc3cnc4cc(-n5ccnn5)ccn34)cc2s1 [Example 218, (1R,2R)-2-((6-((7-(1H-1,2,3-triazol-1-yl)imidazo[1,2-a]pyridin-3-yl)methyl)benzo[d]thiazol-2-yl)amino)cyclohexanol] | – | – | – | –
1000 to 5000 | 100 to 500 | 50 to 200 | ≤ 50 | Fc1cnc2c(c1)ncn2Cc1ccc2nc(N[C@@H]3CCCC[C@@H]3Cl)sc2c1 [Example 219, N-((1R,2S)-2-chlorocyclohexyl)-6-((6-fluoro-3H-imidazo[4,5-b]pyridin-3-yl)methyl)benzo[d]thiazol-2-amine] | – | – | – | –
> 5000 | > 2000 | > 500 | 50 to 500 | Nc1nccn(Cc2ccc3nc(N[C@@H]4CCCC[C@H]4O)sc3c2)c1=O [Example 220, 3-amino-1-((2-(((1R,2R)-2-hydroxycyclohexyl)amino)benzo[d]thiazol-6-yl)methyl)pyrazin-2(1H)-one acetate salt] | – | – | – | –
